Laboratory results from patent US20210009613A1, “ARYLPHOSPHINE OXIDES FOR INHIBITING KINASE ACTIVITY” (Shenzhen TargetRx, Inc., priority 2017, published 2021).

Assays:
[1] = test system: I1171N/T/S; settings: Crizotinib-resistant mutation; cited from earlier work
[2] = test system: F1174C/V; settings: Crizotinib-resistant mutation; cited from earlier work
[3] = target: G1202R (Homo sapiens, UniProt Q9UM73, G1202R); settings: Crizotinib-resistant mutation; cited from earlier work
[4] = target: ALK [WT] (Homo sapiens, UniProt Q9UM73); assay: Kinase inhibition assay, ALK [WT]; type: biochemical
Procedure: (§1) Compound preparation: The test compounds were dissolved in DMSO to make 20 mM stock solutions. The compounds were diluted in DMSO to 0.1 mM (a dilution with 100 times the final concentration) before use, and a 3-fold series gradient dilution with 11 concentrations was made. Dilutions with 4 times of the final concentration were prepared by diluting with buffer when dosing.
(§2) Kinase assay: after preparing the buffer solution, the enzyme was mixed with pre-diluted compounds with different concentrations, and placed at room temperature for 30 minutes in duplicate. The corresponding substrate and ATP were added thereto and reacted at room temperature for 60 minutes (both a negative and a positive control were set). After the reaction, antibody was added for detection, and after incubation at room temperature for 60 minutes, Evnvision detection was carried out, and data was collected. Data was analyzed and fit according to XLfit5 software. IC50 was calculated by the following formula: (IC50=[(ABS test-ABS begin)/(ABS control-ABS begin)]×100).

[5] = target: ALK [L1196M] (Homo sapiens, UniProt Q9UM73, L1196M); assay: Kinase inhibition assay, ALK [L1196M]; type: biochemical
Procedure: as §1, §2

[6] = test system: Ba/F3 parental; assay: Cytotoxicity test (CellTiter-Glo), Ba/F3 parental; type: cell-based; settings: Mus musculus, BaF3, 72 hours
Procedure: (§3) The in vitro anti-proliferative activity of the compounds of the present disclosure against three types of cells that are cultured in vitro was tested by CellTiter-Glo method.
(§4) Cell lines: Ba/F3 parental; Ba/F3 [EML4-ALK] (From WuXi PharmaTech) and Ba/F3 [EML4-ALK L1196M] (From WuXi PharmaTech); wherein, Ba/F3 parental was cultured in RPMI1640 medium containing 10 ng/ml IL-3, […], 100 U/ml penicillin, and 100 μg/ml streptomycin, Ba/F3 [EML4-ALK] and Ba/F3 [EML4-ALK L1196M] were cultured in RPMI1640 medium containing 10% fetal bovine serum, 100 U/ml penicillin, and 100 μg/ml streptomycin.
(§5) Reagents and materials: RPMI-1640 (GIBCO, Cat. No. A10491-01); fetal bovine serum (GIBCO, Cat. No. 10099141); 0.25% trypsin-EDTA (GIBCO, Cat. No. 25200); penicillin-streptomycin, liquid (GIBCO, Cat. No. 15140-122); DMSO (Sigma, Cat. No. D2650); CellTiter-Glo Test Kit (Promega, Cat. No. G7572), and 96-well plate (Corning, Cat. No. 3365).
(§6) Specific experimental procedures: • 1. The test compounds were dissolved in DMSO to make stock solutions and subjected to a series gradient dilution to give solutions with 10-fold working concentration. • 2. The cells in the logarithmic growth phase were diluted with the culture solution to adjust to the specific cell concentration, 90 μl of cell suspension was added to the 96-well plate to make the cell density reach the specified concentration. The plate was incubated in a incubator at 37° C., containing 5% carbon dioxide gas overnight. • 3. 10 μl drug solutions were added to each well of the 96-well plate inoculated with cells. 10 concentrations of the compounds were tested starting from the highest concentration of 20 μM with a 3-fold series gradient dilution in duplicate. • 4. After continuously cultured for 72 hours, the cells were detected by CellTiter-Glo for the cell viability. The dose-effect curve was made using GraphPad Prism software and IC50 was calculated.

[7] = target: T1, Ba/F3 [EML4-ALK] (Homo sapiens, UniProt Q9UM73); assay: Cytotoxicity test (CellTiter-Glo), Ba/F3 [EML4-ALK]; type: cell-based; settings: 72 hours, CellTiter-Glo; read-out: IC50(nM) ALK (Ba/F3)
T1 construct: IC50(nM) ALK (Ba/F3); other: 72 hours, CellTiter-Glo; Ba/F3 [EML4-ALK]; fused on or other part: Q9HC35 (Echinoderm microtubule-associated protein-like 4)
Procedure: as §3, §4, §5, §6

[8] = test system: Ba/F3 [EML4-ALK]; assay: as above; type: cell-based; settings: ratio of Ba/F3 IC50 values
Procedure: as §3, §4, §5, §6

[9] = target: T2, Ba/F3 [EML4-ALK L1196M] (Homo sapiens, UniProt Q9UM73, L1196M, cells depend on it); assay: Cytotoxicity test (CellTiter-Glo), Ba/F3 [EML4-ALK L1196M]; type: cell-based; settings: 72 hours, CellTiter-Glo; read-out: IC50(nM) ALK[L1196M] (Ba/F3)
T2 construct: IC50(nM) ALK[L1196M]; (Ba/F3); other: 72 hours, CellTiter-Glo; Ba/F3 [EML4-ALK L1196M]; fused on or other part: Q9HC35 (Echinoderm microtubule-associated protein-like 4)
Procedure: as §3, §4, §5, §6

[10] = test system: Ba/F3 [EML4-ALK L1196M]; assay: as above; type: cell-based; settings: ratio of Ba/F3 IC50 values
Procedure: as §3, §4, §5, §6

T2 sequence (Q9UM73 whole entry L1196M, the tested form may be a part): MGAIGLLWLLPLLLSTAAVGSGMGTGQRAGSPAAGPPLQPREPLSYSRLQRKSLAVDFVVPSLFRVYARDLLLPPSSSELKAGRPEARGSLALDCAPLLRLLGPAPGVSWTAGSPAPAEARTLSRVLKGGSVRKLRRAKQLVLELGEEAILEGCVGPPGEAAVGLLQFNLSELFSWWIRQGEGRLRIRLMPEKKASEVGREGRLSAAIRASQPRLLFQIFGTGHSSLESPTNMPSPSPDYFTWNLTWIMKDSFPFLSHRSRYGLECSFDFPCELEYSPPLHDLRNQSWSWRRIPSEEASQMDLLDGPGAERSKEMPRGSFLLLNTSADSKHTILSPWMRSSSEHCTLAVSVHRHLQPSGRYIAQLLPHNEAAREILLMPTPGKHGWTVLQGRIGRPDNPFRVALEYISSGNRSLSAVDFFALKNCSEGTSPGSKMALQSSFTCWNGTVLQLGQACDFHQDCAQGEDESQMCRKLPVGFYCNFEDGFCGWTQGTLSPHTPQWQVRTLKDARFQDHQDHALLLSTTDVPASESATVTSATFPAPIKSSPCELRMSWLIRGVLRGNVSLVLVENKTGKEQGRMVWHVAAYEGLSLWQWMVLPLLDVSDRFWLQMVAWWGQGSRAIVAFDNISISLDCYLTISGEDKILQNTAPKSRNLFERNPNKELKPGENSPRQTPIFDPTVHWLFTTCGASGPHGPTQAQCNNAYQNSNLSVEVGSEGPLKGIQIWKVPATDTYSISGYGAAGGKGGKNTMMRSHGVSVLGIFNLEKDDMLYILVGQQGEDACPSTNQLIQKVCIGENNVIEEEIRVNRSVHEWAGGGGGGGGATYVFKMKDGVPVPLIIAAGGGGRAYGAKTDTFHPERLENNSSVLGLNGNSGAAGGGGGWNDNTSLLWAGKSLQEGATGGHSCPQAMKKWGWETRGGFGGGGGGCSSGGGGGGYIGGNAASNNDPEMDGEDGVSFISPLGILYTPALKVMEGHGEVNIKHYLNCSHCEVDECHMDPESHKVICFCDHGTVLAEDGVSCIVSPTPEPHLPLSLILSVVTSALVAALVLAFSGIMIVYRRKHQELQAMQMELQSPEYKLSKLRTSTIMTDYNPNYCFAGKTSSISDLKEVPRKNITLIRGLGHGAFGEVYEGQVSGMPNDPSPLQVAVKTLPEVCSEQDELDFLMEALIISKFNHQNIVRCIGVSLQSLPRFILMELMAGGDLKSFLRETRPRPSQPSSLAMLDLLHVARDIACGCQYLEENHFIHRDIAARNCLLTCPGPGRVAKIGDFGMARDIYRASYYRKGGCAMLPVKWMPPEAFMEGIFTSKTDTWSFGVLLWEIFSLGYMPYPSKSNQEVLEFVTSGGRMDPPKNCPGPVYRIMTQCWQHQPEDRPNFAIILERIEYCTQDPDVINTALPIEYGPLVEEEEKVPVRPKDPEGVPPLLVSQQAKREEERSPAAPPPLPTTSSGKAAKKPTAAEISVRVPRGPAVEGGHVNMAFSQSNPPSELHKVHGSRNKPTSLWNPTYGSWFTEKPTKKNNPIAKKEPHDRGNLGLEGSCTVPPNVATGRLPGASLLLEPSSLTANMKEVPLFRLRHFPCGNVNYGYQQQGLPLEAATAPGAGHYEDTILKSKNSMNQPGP
ALK [WT], sequence (Q9UM73 19-1620): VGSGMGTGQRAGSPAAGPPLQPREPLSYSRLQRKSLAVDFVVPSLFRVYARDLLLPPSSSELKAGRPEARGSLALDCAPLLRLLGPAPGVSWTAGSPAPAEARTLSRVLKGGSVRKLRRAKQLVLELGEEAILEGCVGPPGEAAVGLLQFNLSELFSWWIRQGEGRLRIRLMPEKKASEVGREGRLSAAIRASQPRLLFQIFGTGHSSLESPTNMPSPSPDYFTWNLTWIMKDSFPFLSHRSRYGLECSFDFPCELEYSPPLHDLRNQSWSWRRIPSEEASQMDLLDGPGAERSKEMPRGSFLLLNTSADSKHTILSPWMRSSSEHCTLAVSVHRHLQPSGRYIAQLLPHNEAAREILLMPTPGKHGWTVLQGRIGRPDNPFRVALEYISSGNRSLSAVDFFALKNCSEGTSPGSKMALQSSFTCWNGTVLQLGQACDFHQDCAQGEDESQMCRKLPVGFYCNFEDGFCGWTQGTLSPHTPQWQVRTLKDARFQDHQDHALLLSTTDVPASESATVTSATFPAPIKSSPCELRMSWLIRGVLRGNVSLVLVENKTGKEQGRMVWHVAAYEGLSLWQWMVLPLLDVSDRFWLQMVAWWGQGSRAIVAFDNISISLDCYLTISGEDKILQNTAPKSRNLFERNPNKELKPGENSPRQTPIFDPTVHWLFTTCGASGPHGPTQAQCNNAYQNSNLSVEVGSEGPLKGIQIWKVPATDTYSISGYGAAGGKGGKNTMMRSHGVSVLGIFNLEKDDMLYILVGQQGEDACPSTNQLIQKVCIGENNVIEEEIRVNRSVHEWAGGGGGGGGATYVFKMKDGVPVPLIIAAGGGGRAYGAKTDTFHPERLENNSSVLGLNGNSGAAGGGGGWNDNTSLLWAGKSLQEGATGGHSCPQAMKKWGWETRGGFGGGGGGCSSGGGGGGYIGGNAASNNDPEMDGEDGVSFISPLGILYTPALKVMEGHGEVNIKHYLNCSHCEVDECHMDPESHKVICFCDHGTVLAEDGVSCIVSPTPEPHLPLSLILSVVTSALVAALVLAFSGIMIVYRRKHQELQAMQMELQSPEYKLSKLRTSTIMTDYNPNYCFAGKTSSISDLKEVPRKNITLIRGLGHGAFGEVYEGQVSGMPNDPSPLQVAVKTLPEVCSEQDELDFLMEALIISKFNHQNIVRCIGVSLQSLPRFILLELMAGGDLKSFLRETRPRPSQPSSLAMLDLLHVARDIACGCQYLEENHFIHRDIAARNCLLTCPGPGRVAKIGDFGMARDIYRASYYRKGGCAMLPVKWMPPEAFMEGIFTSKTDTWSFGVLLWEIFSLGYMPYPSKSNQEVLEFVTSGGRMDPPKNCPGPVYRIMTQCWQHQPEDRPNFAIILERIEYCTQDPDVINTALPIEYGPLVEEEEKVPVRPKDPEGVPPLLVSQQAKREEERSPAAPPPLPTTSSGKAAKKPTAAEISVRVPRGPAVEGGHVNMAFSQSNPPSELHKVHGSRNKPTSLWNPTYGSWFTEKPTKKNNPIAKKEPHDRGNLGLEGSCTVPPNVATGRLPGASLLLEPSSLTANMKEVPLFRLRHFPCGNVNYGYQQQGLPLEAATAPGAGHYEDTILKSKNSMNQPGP
T1 sequence (Q9UM73 whole entry, change not shown, the tested form may be a part): as the sequence (Q9UM73 whole entry L1196M, the tested form may be a part) above, with M1196L counted along it
ALK [L1196M], sequence (Q9UM73 19-1620 L1196M): as the sequence (Q9UM73 19-1620) above, with L1178M counted along it
G1202R, sequence (Q9UM73 19-1620 G1202R): as the sequence (Q9UM73 19-1620) above, with G1184R counted along it

SMILES | effect on I1171N/T/S [1] | effect on F1174C/V [2] | effect on G1202R [3] | IC50 [4] [nM] | IC50 [5] [nM] | IC50 [6] [nM] | GI50 [7] [nM] | Selectivity parental/ALK [8] | GI50 [9] [nM] | Selectivity parental/ALK[L1196M] [10]
CCc1cc2c(cc1N1CCC(N3CCOCC3)CC1)C(C)(C)c1[nH]c3cc(C#N)ccc3c1C2=O [Alectinib] | no effect | – | – | – | – | – | – | – | – | –
Cc1cc(Nc2ncc(Cl)c(Nc3ccccc3S(=O)(=O)C(C)C)n2)c(OC(C)C)cc1C1CCNCC1 [Ceritinib] | – | no effect | neither of them has effect | – | – | – | – | – | – | –
COc1nc(N2CCN(C)CC2)ccc1Nc1nc(Nc2ccccc2P(C)(C)=O)c2cc[nH]c2n1 [Example 14, (2-((2-((2-methoxy-6-(4-methylpiperazin-1-yl)pyridin-3-yl)amino)-7H-pyrrolo[2,3-d]pyrimidin-4-yl)amino)phenyl)dimethylphosphine oxide] | – | – | – | ≤ 5 | ≤ 5 | 400 to 1000 | ≤ 50 | 50~100 | ≤ 50 | 0~50
COc1nc(N(C)CCN(C)C)ccc1Nc1nc(Nc2ccccc2P(C)(C)=O)c2cc[nH]c2n1 [Example 15] | – | – | – | 5 to 10 | ≤ 5 | ≥ 1000 | ≤ 50 | 50~100 | 50 to 100 | 0~50
COc1nc(N2CCC(N3CCN(C)CC3)CC2)ccc1Nc1nc(Nc2ccccc2P(C)(C)=O)c2cc[nH]c2n1 [Example 16, (2-((2-((2-methoxy-6-(4-(4-methylpiperazin-1-yl)piperidin-1-yl)pyridin-3-yl)amino)-7H-pyrrolo[2,3-d]pyrimidin-4-yl)amino)phenyl)dimethylphosphine oxide] | – | – | – | ≤ 5 | 5 to 10 | 400 to 1000 | ≤ 50 | 50~100 | 50 to 100 | 0~50
CP(C)(=O)c1ccccc1Nc1nc(Nc2ccc(CCN)nc2OCC(F)(F)F)ncc1Cl [Example 17, (2-((2-((6-(2-aminoethyl)-2-(2,2,2-trifluoroethoxy)pyridin-3-yl)amino)-5-chloropyrimidin-4-yl)amino)phenyl)dimethylphosphine oxide] | – | – | – | 10 to 50 | 50 to 100 | ≥ 1000 | 100 to 400 | 50~100 | 400 to 1000 | 0~50
CNCCc1ccc(Nc2ncc(Cl)c(Nc3ccccc3P(C)(C)=O)n2)c(OCC(F)(F)F)n1 [Example 18, (2-((5-chloro-2-((6-(2-(methylamino)ethyl)-2-(2,2,2-trifluoroethoxy)pyridin-3-yl)amino)pyrimidin-4-yl)amino)phenyl)dimethylphosphine oxide] | – | – | – | 10 to 50 | 50 to 100 | ≥ 1000 | 100 to 400 | 50~100 | 100 to 400 | 0~50
CN(C)CCc1ccc(Nc2ncc(Cl)c(Nc3ccccc3P(C)(C)=O)n2)c(OCC(F)(F)F)n1 [Example 19, (2-((5-chloro-2-((6-(2-(dimethylamino)ethyl)-2-(2,2,2-trifluoroethoxy)pyridin-3-yl)amino)pyrimidin-4-yl)amino)phenyl)dimethylphosphine oxide] | – | – | – | 10 to 50 | 50 to 100 | ≥ 1000 | 50 to 100 | 100~200 | 100 to 400 | 50~100
